Data set [1] deals with tyramine oxidase. As to the kind of experiment: Effect of various substances on the activity of tyramine oxidase. The data set is classed as biochemical, Arthrobacter sp. B-0813. The method, then: (§1) An enzyme solution (0.05 ml) is added to a reaction mixture (0.5 ml) consisting of the following, and the volume is increased to 1.0 ml by adding water and the mixture is incubated at 37° C. for 10 minutes.
(§2) Water (0.1 ml) is added in place of enzyme solution as a control. The reaction mixture is measured at 490 nm.
(§3) Enzyme activity is calculated by the following equation: [formula] wherein Δ490 nm is the absorption value at Δ490 nm for 10 minutes, and f is the dilution ratio.

For data set [2], the system named is tyramine oxidase. Description: Substrate specificity of tyramine oxidase. Format: biochemical, Arthrobacter sp. B-0813. The arrangement: Relative activity (%) as substrate: concentration or dose not given beside the values. Conditions: for Relative activity (%) as substrate: substrate added to the reaction mixture, tyramine = 100.0. The method, then:
as §1, §2, §3
Substrate specificity was measured by adding various substrates to the reaction mixture.

The test system of data set [3] is tyramine oxidase. Description: Km-value of tyramine oxidase. Conditions: substrate tyramine. The data set is classed as biochemical, Arthrobacter sp. B-0813. The method, then: as §1
The test system of data set [4] is Arthrobacter sp. B-0813 FERM-P No. 6240. Format: cell-based. To be noted: arthrobacter culture. The method, then:
A medium (100 ml, pH 7.5) comprising by weight soybean oil 0.8%, corn steep liquor 1.0%, meat extract 0.1%, polypeptone 1.0%, NaCl 0.3% and β-phenylethylamine 0.15% was put into a 500 ml Erlenmeyer flask and sterilized at 120° C. for 20 minutes. Arthrobacter sp. B-0813 FERM-P No. 6240 was inoculated into the medium and the mixture was cultured at 30° C. for 20 hours to prepare a seed culture. The medium containing the same components (20 lit.) together with added 0.2% of antifoam agent (silicone AF-145), (Asahi Chem.) was poured into a 30 lit. jar fermenter and the above two flasks of seed culture were inoculated therein, then the medium was aerobically cultured with agitation at 250 rpm and with 20 lit./min. aeration for 20 hours. The tyramine oxidase activity of the cultured broth was 1.3 U/ml.
When tyramine or butylamine was added to the medium, a more than 200-fold increase in the yield of enzyme was observed as compared with no addition of these amines. The amount of such addition is 0.1-0.2%, preferably 0.15%. The culturing temperature is generally 25°-35° C. and the culturing time is 10-30 hours.

The mark [5] stands for this setting: amount added 5 mM, control (no addition) = 100.0.
Setting [6] is: amount added 0.025 mM, control (no addition) = 100.0.

These results are taken from patent publication US4496655A, “Process for the production of tyramine oxidase” (Toyo Jozo Kabushiki Kaisha, priority 1981, dated 1985).

Like-named read-outs stand apart in the source and are kept apart here.

For the compound `[Ba+2].[Cl-].[Cl-]` [BaCl2], the “Relative Activity (%)” value in the data set with tyramine oxidase [1] (setting [5]) is 96.6%. On to `NCc1ccccc1` [Benzylamine], for which the “Relative activity (%) as substrate” value in the data set with tyramine oxidase [2] came to 0.0%. For the compound `[Ca+2].[Cl-].[Cl-]` [CaCl2], the “Relative Activity (%)” value in the data set with tyramine oxidase [1] (setting [5]) is given as 86.2%. `CCCCCCCCCCCCCCCC[N+](C)(C)C.[Cl-]` [Cetyltrimethylammonium chloride]: the “Relative Activity (%)” value in the data set on tyramine oxidase [1] (setting [6]) was 0.0%. Consider `[Cl-].[Cl-].[Co+2]` [CoCl2], for which the “Relative Activity (%)” value in the data set on tyramine oxidase [1] (setting [5]) worked out at 86.2%. In the case of `O=C(O)CN(CCN(CC(=O)O)CC(=O)O)CC(=O)O` [EDTA], the “Relative Activity (%)” value with tyramine oxidase [1] was 100.0%. Turning to `CCN` [Ethylamine], the “Relative activity (%) as substrate” value in the data set with tyramine oxidase [2] is given as 0.0%. Take `Cc1cc2nc3c(=O)[nH]c(=O)nc-3n(C[C@H](O)[C@H](O)[C@H](O)COP(=O)(O)OP(=O)(O)OC[C@H]3O[C@@H](n4cnc5c(N)ncnc54)[C@H](O)[C@@H]3O)c2cc1C` [FAD]: the “Relative Activity (%)” value in the data set on tyramine oxidase [1] (amount added 0.1 mM, control (no addition) = 100.0) turned out to be 75.4%. With `Cc1cc2nc3c(=O)[nH]c(=O)nc-3n(C[C@H](O)[C@H](O)[C@H](O)COP(=O)(O)O)c2cc1C` [FMN, flavin mononucleotide], in the data set on tyramine oxidase [1], the “Effect of addition on the activity of the enzyme (in words)” value was “increases the activity”. Further, in the data set on tyramine oxidase [1] (amount added 0.01 mM, control (no addition) = 100.0), the “Relative Activity (%)” value is reported as 108.8%. Regarding `[Cl-].[Li+]` [LiCl], the “Relative Activity (%)” value in the data set with tyramine oxidase [1] (setting [5]) is reported as 82.8%. `CN` [Methylamine]: the “Relative activity (%) as substrate” value in the data set with tyramine oxidase [2] is 0.0%. On to `[Cl][Mn][Cl]` [MnCl2], for which the “Relative Activity (%)” value in the data set with tyramine oxidase [1] (setting [5]) came to 82.8%. In the case of `Cl.N` [NH4 Cl], the “Relative Activity (%)” value with tyramine oxidase [1] (setting [5]) worked out at 96.6%.

`[Na+].[Na+].[O]=[Mo](=[O])([O-])[O-]` [NaMoO4]: the “Relative Activity (%)” value with tyramine oxidase [1] (setting [5]) was determined as 39.7%. As to `[N-]=[N+]=[N-].[Na+]` [NaN3], the “Relative Activity (%)” value with tyramine oxidase [1] (setting [5]) is 98.3%. What is called Km is the substrate concentration at which the rate is half of its maximum. Turning to `NCCc1ccc(O)cc1` [Tyramine, p-hydroxyphenylethylamine], in the data set on tyramine oxidase [2], the “Activity of the enzyme on the substrate (in words)” value was “specific activity” and the “Relative activity (%) as substrate” value stood at 100.0%. For the same compound, the Km in the data set on tyramine oxidase [3] was found to be 27 µM. Further, in data set [4], the “Increase in the yield of enzyme compared with no addition of these amines” value is recorded as “more than 200 fold”. `CCCCN` [n-butylamine]: in the data set on tyramine oxidase [2], the “Activity of the enzyme on the substrate (in words)” value is on record as “activity” and the “Relative activity (%) as substrate” value was 45.3%. In addition, in data set [4], the “Increase in the yield of enzyme compared with no addition of these amines” value is reported as “more than 200 fold”. On to `O=C(O)c1cc[c]([Hg][Cl])cc1` [p-chloromercuribenzoate (PCMB), p-chloromercuribenzoate], for which the “Relative Activity (%)” value in the data set on tyramine oxidase [1] (amount added 0.2 mM, control (no addition) = 100.0) is recorded as 79.3%. As for `NCCc1ccc(Cl)cc1` [p-chlorophenylethylamine], in the data set with tyramine oxidase [2], the “Activity of the enzyme on the substrate (in words)” value is listed as “activity” and the “Relative activity (%) as substrate” value is recorded as 47.9%.

As for `NCCc1ccccc1` [β-phenylethylamine], in the data set with tyramine oxidase [2], the “Activity of the enzyme on the substrate (in words)” value is on record as “activity” and the “Relative activity (%) as substrate” value worked out at 54.7%. “Laurylbenzene sulfonate [Laurylbenzene sulfonate (LBS)]”: the “Relative Activity (%)” value in the data set on tyramine oxidase [1] (amount added 0.05 mM, control (no addition) = 100.0) is listed as 63.9%. For the compound Triton X-100, in the data set on tyramine oxidase [1] (setting [6]), the “Relative Activity (%)” value turned out to be 96.7%.
